Structures can show the parent of a compound that is named as a salt.
Key:
[1] = Stability and hygroscopicity of the salt; assay type: physicochemical
Source text: The term ‘stable’ or ‘stability’ as used herein includes chemical stability and solid state (physical) stability. The term ‘chemical stability’ means that the compound can be stored in an isolated form, or in the form of a formulation in which it is provided in admixture with for example, pharmaceutically acceptable carriers, diluents or adjuvants as described herein, under normal storage conditions, with little or no chemical degradation or decomposition. ‘Solid-state stability’ means the compound can be stored in an isolated solid form, or the form of a solid formulation in which it is provided in admixture with, for example, pharmaceutically acceptable carriers, diluents or adjuvants as described herein, under normal storage conditions, with little or no solid-state transformation (e.g. hydration, dehydration, solvatisation, desolvatisation, crystallisation, recrystallisation or solid-state phase transition).

Solubility of the salt = assay type: physicochemical
[2] = clinical studies; cited from earlier work
symptomatic CLL patients = conditions: initial therapy; cited from earlier work
CDK5/p35 = CDK5/p35 (Homo sapiens, UniProt Q00535); experiment: CDK selectivity assay, CDK5/p35; assay type: biochemical
Source text: (specific activity approx 500 cpm/pmol, concentration as required).

[3] = system: human colon carcinoma cell line HCT 116; experiment: Anti-proliferative activity, Alamar Blue assay; assay type: cell-based; conditions: 72 hours compound incubation, read-out: IC50, inhibition of cell growth, HCT 116
How it was run: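 Cells were allowed to recover for 16 h, then exposed to compounds or combinations for 72 h. Viability was measured by resazurin reduction after 6 h with 10% (v/v) Alamar Blue, read at 535 nm ex/590 […] em. In the non-proliferating format, cells were held at confluence for 96 h before the 72 h treatment.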

PKG = conditions: data published in 2002; cited from earlier work
PKC = conditions: data published in 2002; cited from earlier work
PKA = conditions: data published in 2002; cited from earlier work
OVCAR-3 tumour cells = conditions: concentrations of 50 and 100 microM; cited from earlier work

CDK5/p35, sequence (Q00535 whole entry, species assumed): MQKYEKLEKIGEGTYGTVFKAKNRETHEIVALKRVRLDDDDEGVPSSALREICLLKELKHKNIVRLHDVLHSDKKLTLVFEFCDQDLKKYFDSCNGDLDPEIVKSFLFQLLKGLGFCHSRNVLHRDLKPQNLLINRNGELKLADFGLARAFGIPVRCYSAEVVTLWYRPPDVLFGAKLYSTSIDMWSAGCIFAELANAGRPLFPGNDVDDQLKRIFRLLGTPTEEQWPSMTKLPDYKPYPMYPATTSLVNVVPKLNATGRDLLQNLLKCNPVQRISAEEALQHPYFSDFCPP
CDK5/p35, sequence (Q15078 whole entry partner, species assumed): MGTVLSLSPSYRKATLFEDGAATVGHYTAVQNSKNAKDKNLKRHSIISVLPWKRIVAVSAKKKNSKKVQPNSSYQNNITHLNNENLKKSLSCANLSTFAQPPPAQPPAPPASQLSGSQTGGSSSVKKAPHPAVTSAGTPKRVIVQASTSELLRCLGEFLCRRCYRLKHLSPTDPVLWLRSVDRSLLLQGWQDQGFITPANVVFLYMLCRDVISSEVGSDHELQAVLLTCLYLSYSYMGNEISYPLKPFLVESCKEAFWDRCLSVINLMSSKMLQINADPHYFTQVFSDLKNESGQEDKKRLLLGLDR

SMILES: CS(=O)(=O)O.O=C(NC1CCNCC1)c1n[nH]cc1NC(=O)c1c(Cl)cccc1Cl [methanesulphonate salt, 4-(2,6-dichlorobenzoylamino)-1H-pyrazole-3-carboxylic acid piperidin-4-ylamide methanesulphonate]
- Hygroscopicity [1]: non-hygroscopicity
- Water solubility (Solubility of the salt): excellent

SMILES: CCCCCCCCCCCCCCCCCCOP(=O)([O-])OC1CC[N+](C)(C)CC1 [KRX-0401, Perifosine]
- Half-life [2]: ~100 h

SMILES: Nc1nc(F)nc2c1ncn2[C@@H]1O[C@H](CO)[C@@H](O)[C@@H]1O [fludarabine]
- Duration of progression-free survival (symptomatic CLL patients): 33 months
- Rate of complete responses (symptomatic CLL patients): 27%

SMILES: O=C(NC1CCNCC1)c1n[nH]cc1NC(=O)c1c(Cl)cccc1Cl [methanesulphonic acid salt, 4-(2,6-dichloro-benzoylamino)-1H-pyrazole-3-carboxylic acid piperidin-4-ylamide]
- solubility (Solubility of the salt; pH 4.6, aqueous buffer, acetic acid/sodium acetate buffer, solution pH approximately 4.6): ~35 mg/mL

SMILES: O=C(Nc1ccc(F)cc1)c1n[nH]cc1NC(=O)c1c(F)cccc1F [Example 41, 4-(2,6-Difluoro-benzoylamino)-1H-pyrazole-3-carboxylic acid (4-fluoro-phenyl)-amide]
- IC50 (CDK5/p35): < 20 µM
- IC50 [3]: < 20 µM

SMILES: O=S(=O)(NCCNCC=C(c1ccccc1)c1ccccc1)c1cccc2cnccc12 [NL-71-101]
- IC50 (PKG): 36 µM
- IC50 (PKC): 104 µM
- IC50 (PKA): 9 µM
- Apoptosis in OVCAR-3 tumour cells (OVCAR-3 tumour cells): induced apoptosis

From patent US8404718B2, “Combinations of pyrazole kinase inhibitors” (Astex Therapeutics Limited, priority 2005, dated 2013)
